# Test system: HCV pseudoparticles (genotype 1a HCV E1 and E2 envelope, H77C isolate)
# Assay: microbe, parasite or virus in culture
# Format: cell-based
# Settings: Hepatitis C virus, Huh-7, 48 h, HCV pseudoparticle infection of Huh7 cells, luciferase 2 days after infection; average of duplicates
row,SMILES,EC50 [nM]
1,COC(=O)[C@H](CNC(=O)C(=O)NC(C1CC1)C1CC1)NC(=O)c1ccc(Nc2nc(NC3(c4ccc(Cl)cc4)CC3)nc(OCC(F)(F)F)n2)cc1 [Compound 1055],2.41
2,O=C(NCCc1ccncc1)C(=O)NC[C@H](NC(=O)c1ccc(Nc2nc(NC3(c4ccc(Cl)cc4)CC3)nc(OCC(F)(F)F)n2)cc1)C(=O)O [Compound 1400],3.77
3,O=C(NCCc1ccc(F)cc1)C(=O)NCC[C@H](NC(=O)c1ccc(Nc2nc(NC3(c4ccc(Cl)cc4)CC3)nc(OCC(F)(F)F)n2)cc1)C(=O)O [Compound 1336],0.88
4,CC(C)(CNC(=O)C(=O)Nc1nccs1)CNC(=O)c1ccc(Nc2nc(NC3(c4ccc(Cl)cc4)CC3)nc(OCC(F)(F)F)n2)cc1 [Compound 1547],0.06

# Same assay, conditions: Hepatitis C virus, Huh-7, 48 h, HCV pseudoparticles (genotype 1a, H77C) in Huh7 cells; average of duplicate; luciferase 2 days after infection
row,SMILES,EC50 [nM]
1,CC(C)(CNC(=O)C(N)=O)CNC(=O)c1ccc(Nc2nc(NC3(c4ccccc4)CC3)nc(OCC(F)(F)F)n2)cc1 [Compound 3244],0.07
2,CCc1ccc(NC(=O)C(=O)NC[C@H](NC(=O)c2ccc(Nc3nc(NC4(c5ccc(Cl)cc5)CC4)nc(OCC(F)(F)F)n3)cc2)C(=O)O)cc1 [Compound 3296],0.24
3,Cc1ccc(NC(=O)C(=O)N(C)CCCNC(=O)c2ccc(Nc3nc(NC4(c5ccc(Cl)cc5)CC4)nc(OCC(F)(F)F)n3)cc2)cc1 [Compound 3445],0.061

# Same assay, conditions: Hepatitis C virus, Huh-7, 48 h, HCV pseudoparticles, Huh7 cells, luciferase 2 days after infection; average of duplicates
row,SMILES,EC50 [nM]
1,CC(C)(CNC(=O)C(N)=O)CNC(=O)c1c(F)cc(Nc2nc(NC3(c4ccc(Cl)cc4)CC3)nc(OCC(F)(F)F)n2)cc1F [Compound 3812],0.5
2,CC(C)(CNC(=O)C(=O)Nc1cc[nH]n1)CNC(=O)c1ccc(Nc2nc(NC3(c4ccc(Cl)cc4)CC3)nc(OCC(F)(F)F)n2)cc1 [Compound 3794],0.061

# Same assay, conditions: Hepatitis C virus, Huh-7, 48 h, read-out: Activity (EC50 class), HCV pseudoparticle infection of Huh7 cells, luciferase 2 days after infection; EC50 expressed as class A/B
row,SMILES,EC50 [nM]
1,COC(=O)[C@H](CCNC(=O)C(=O)NCCc1ccccc1F)NC(=O)c1ccc(Nc2nc(NC3(c4ccc(Cl)cc4)CC3)nc(OCC(F)(F)F)n2)cc1 [Compound 1313],0.01 to 10
2,COC(=O)[C@H](CNC(=O)C(=O)NC(C1CC1)C1CC1)NC(=O)c1ccc(Nc2nc(NC3(c4ccc(Cl)cc4)CC3)nc(OCC(F)(F)F)n2)cc1 [Compound 1055],0.01 to 10
3,COC(=O)[C@H](CNC(=O)C(=O)NCc1cccc(F)c1)NC(=O)c1ccc(Nc2nc(NC3(c4ccc(Cl)cc4)CC3)nc(OCC(F)(F)F)n2)cc1 [Compound 1131],0.01 to 10
4,COC(=O)[C@H](CCNC(=O)C(=O)NC1(Cc2ccccc2)CC1)NC(=O)c1ccc(Nc2nc(NC3(c4ccc(Cl)cc4)CC3)nc(OCC(F)(F)F)n2)cc1 [Compound 1325],0.01 to 10
5,CCOC(=O)[C@H](CCNC(=O)C(=O)NCC1CC1)NC(=O)c1ccc(Nc2nc(NC3(c4ccc(Cl)cc4)CC3)nc(OCC(F)(F)F)n2)cc1 [Compound 1369],0.01 to 10
6,O=C(NCC[C@@H](NC(=O)c1ccc(Nc2nc(NC3(c4ccc(Cl)cc4)CC3)nc(OCC(F)(F)F)n2)cc1)C(=O)O)C(=O)Nc1ccc(-c2ccccc2)cc1 [Compound 1557],0.01 to 10
7,O=C(NC[C@H](NC(=O)c1ccc(Nc2nc(NC3(c4ccc(Cl)cc4)CC3)nc(OCC(F)(F)F)n2)cc1)C(=O)O)C(=O)Nn1cnnc1 [Compound 1350],10 to 1000
8,O=C(NCc1cccc(F)c1)C(=O)NC[C@H](NC(=O)c1ccc(Nc2nc(NC3(c4ccc(Cl)cc4)CC3)nc(OCC(F)(F)F)n2)cc1)C(=O)O [Compound 1163],0.01 to 10
9,COC(=O)[C@H](CCNC(=O)C(=O)NC(CCO)C1CC1)NC(=O)c1ccc(Nc2nc(NC3(c4ccc(Cl)cc4)CC3)nc(OCC(F)(F)F)n2)cc1 (stereo partly drawn) [Compound 1391],0.01 to 10
10,Cn1cc(NC(=O)C(=O)NC[C@H](NC(=O)c2ccc(Nc3nc(NC4(c5ccc(Cl)cc5)CC4)nc(OCC(F)(F)F)n3)cc2)C(=O)O)cn1 [Compound 1356],0.01 to 10
11,COC(=O)[C@H](CNC(=O)C(=O)NCC1CCCCCC1)NC(=O)c1ccc(Nc2nc(NC3(c4ccc(Cl)cc4)CC3)nc(OCC(F)(F)F)n2)cc1 [Compound 1451],0.01 to 10
12,Cc1cccc(NC(=O)C(=O)NCC(C)(C)CNC(=O)c2ccc(Nc3nc(NC4(c5ccc(Cl)cc5)CC4)nc(OCC(F)(F)F)n3)cc2)c1 [Compound 1597],0.01 to 10
13,Cc1ccc(CNC(=O)C(=O)NCC[C@H](NC(=O)c2ccc(Nc3nc(NC4(c5ccc(Cl)cc5)CC4)nc(OCC(F)(F)F)n3)cc2)C(=O)O)c(F)c1 [Compound 1188],0.01 to 10
14,CCC1CCC(NC(=O)C(=O)NCC[C@H](NC(=O)c2ccc(Nc3nc(NC4(c5ccc(Cl)cc5)CC4)nc(OCC(F)(F)F)n3)cc2)C(=O)O)CC1 (stereo partly drawn) [Compound 1121],0.01 to 10
15,O=C(NCC[C@H](NC(=O)c1ccc(Nc2nc(NC3(c4ccc(Cl)cc4)CC3)nc(OCC(F)(F)F)n2)cc1)C(=O)O)C(=O)Nc1cccc(F)c1 [Compound 1269],0.01 to 10
16,O=C(Nc1ccc(Oc2nn[nH]n2)cc1)C(=O)NC1CCCC1CNC(=O)c1ccc(Nc2nc(NC3(c4ccc(Cl)cc4)CC3)nc(OCC(F)(F)F)n2)cc1 (stereo not drawn) [Compound 1494],0.01 to 10
17,O=C(NCCc1ccncc1)C(=O)NC[C@H](NC(=O)c1ccc(Nc2nc(NC3(c4ccc(Cl)cc4)CC3)nc(OCC(F)(F)F)n2)cc1)C(=O)O [Compound 1400],0.01 to 10
18,O=C(NC[C@H](NC(=O)c1ccc(Nc2nc(NC3(c4ccc(Cl)cc4)CC3)nc(OCC(F)(F)F)n2)cc1)C(=O)O)C(=O)NC1CCCCCCC1 [Compound 1096],0.01 to 10
19,O=C(NCCc1ccc(F)cc1)C(=O)NCC[C@H](NC(=O)c1ccc(Nc2nc(NC3(c4ccc(Cl)cc4)CC3)nc(OCC(F)(F)F)n2)cc1)C(=O)O [Compound 1336],0.01 to 10
20,CC(C)(CNC(=O)C(=O)Nc1nccs1)CNC(=O)c1ccc(Nc2nc(NC3(c4ccc(Cl)cc4)CC3)nc(OCC(F)(F)F)n2)cc1 [Compound 1547],0.01 to 10
21,Cc1ccc(NC(=O)C(=O)NC[C@H](NC(=O)c2ccc(Nc3nc(NC4(c5ccc(Cl)cc5)CC4)nc(OCC(F)(F)F)n3)cc2)C(=O)O)cc1 [Compound 1360],0.01 to 10
22,CC(C)(CNC(=O)C(=O)Nc1ccccc1-c1ccccc1)CNC(=O)c1ccc(Nc2nc(NC3(c4ccc(Cl)cc4)CC3)nc(OCC(F)(F)F)n2)cc1 [Compound 1572],0.01 to 10
23,CC(C)(CNC(=O)C(=O)Nc1ccc(-c2ccc(F)cc2)cc1)CNC(=O)c1ccc(Nc2nc(NC3(c4ccc(Cl)cc4)CC3)nc(OCC(F)(F)F)n2)cc1 [Compound 1569],0.01 to 10

# Same assay, conditions: Hepatitis C virus, Huh-7, 48 h, read-out: Activity (EC50 class), HCV pseudoparticles, Huh7 cells, luciferase 2 days after infection; average of duplicates
row,SMILES,EC50 [nM]
1,COC(=O)[C@H](CNC(=O)C(=O)Nc1cccc(-n2cnnc2)c1)NC(=O)c1ccc(Nc2nc(NC3(c4ccc(Cl)cc4)CC3)nc(OCC(F)(F)F)n2)cc1 [Compound 3729],0.01 to 10
2,COC(=O)[C@H](CNC(=O)C(=O)Nc1cccc(C(C)(C)C)c1)NC(=O)c1ccc(Nc2nc(NC3(c4ccc(Cl)cc4)CC3)nc(OCC(F)(F)F)n2)cc1 [Compound 3704],0.01 to 10
3,CC(C)(CNC(=O)C(N)=O)CNC(=O)c1c(F)cc(Nc2nc(NC3(c4ccc(Cl)cc4)CC3)nc(OCC(F)(F)F)n2)cc1F [Compound 3812],0.01 to 10
4,Cc1ccc(NC(=O)C(=O)NCC(C)(C)CNC(=O)c2ccc(Nc3nc(NC4(c5ccc(Cl)cc5)CC4)nc(OCc4ccc(C(C)(C)C)cc4)n3)cc2)cc1 [Compound 3841],0.01 to 10
5,CC(C)(CNC(=O)C(=O)Nc1ccc(Cl)c(Cl)c1)CNC(=O)c1ccc(Nc2nc(NC3(c4ccc(Cl)cc4)CC3)nc(OCC(F)(F)F)n2)cc1 [Compound 3793],0.01 to 10
6,CC(C)(CNC(=O)C(=O)Nc1nc2cccnc2s1)CNC(=O)c1ccc(Nc2nc(NC3(c4ccc(Cl)cc4)CC3)nc(OCC(F)(F)F)n2)cc1 [Compound 3811],0.01 to 10
7,CC(C)(CNC(=O)C(=O)Nc1cc[nH]n1)CNC(=O)c1ccc(Nc2nc(NC3(c4ccc(Cl)cc4)CC3)nc(OCC(F)(F)F)n2)cc1 [Compound 3794],0.01 to 10
8,COC(=O)[C@H](CNC(=O)C(=O)Nc1cccc(-c2csc(C)n2)c1)NC(=O)c1ccc(Nc2nc(NC3(c4ccc(Cl)cc4)CC3)nc(OCC(F)(F)F)n2)cc1 [Compound 3718],0.01 to 10

# Same assay, conditions: Hepatitis C virus, Huh-7, read-out: Activity (EC50 class), HCV pseudoparticles (genotype 1a, H77C) in Huh7 cells; EC50 expressed as class A/B
row,SMILES,EC50 [nM]
1,CC(C)(CNC(=O)C(=O)Nc1cccc2c1-c1ccccc1C2=O)CNC(=O)c1ccc(Nc2nc(NC3(c4ccc(Cl)cc4)CC3)nc(OCC(F)(F)F)n2)cc1 [Compound 3344],0.01 to 10
2,CC(C)(CNC(=O)C(=O)Nc1ccccc1Oc1ccccc1)CNC(=O)c1ccc(Nc2nc(NC3(c4ccc(Cl)cc4)CC3)nc(OCC(F)(F)F)n2)cc1 [Compound 3139],0.01 to 10
3,CC(C)(CNC(=O)C(N)=O)CNC(=O)c1ccc(Nc2nc(NC3(c4ccccc4)CC3)nc(OCC(F)(F)F)n2)cc1 [Compound 3244],0.01 to 10
4,COc1cc(OC)nc(-c2ccc(NC(=O)C(=O)NCCC(NC(=O)c3ccc(Nc4nc(NC5(c6ccc(Cl)cc6)CC5)nc(OCC(F)(F)F)n4)cc3)C(=O)O)cc2)n1 (stereo not drawn) [Compound 3523],0.01 to 10
5,COC(=O)[C@H](CCNC(=O)C(=O)Nc1ccc(N2CCOCC2)cc1)NC(=O)c1ccc(Nc2nc(NC3(c4ccc(Cl)cc4)CC3)nc(OCC(F)(F)F)n2)cc1 [Compound 3112],0.01 to 10
6,CC(=O)N1CCN(c2ccc(NC(=O)C(=O)NCCC(NC(=O)c3ccc(Nc4nc(NC5(c6ccc(Cl)cc6)CC5)nc(OCC(F)(F)F)n4)cc3)C(=O)O)cc2)CC1 (stereo not drawn) [Compound 3524],0.01 to 10
7,Cc1nccn1-c1ccc(NC(=O)C(=O)NC[C@H](NC(=O)c2ccc(Nc3nc(NC4(c5ccc(Cl)cc5)CC4)nc(OCC(F)(F)F)n3)cc2)C(=O)O)cc1 [Compound 3286],0.01 to 10
8,CC(C)(CNC(=O)C(=O)N1CCOCC1)CNC(=O)c1ccc(Nc2nc(NC3(c4ccc(Cl)cc4)CC3)nc(OCC(F)(F)F)n2)cc1 [Compound 3381],0.01 to 10
9,Cc1cc2cccc(NC(=O)C(=O)NCC(C)(C)CNC(=O)c3ccc(Nc4nc(NC5(c6ccc(Cl)cc6)CC5)nc(OCC(F)(F)F)n4)cc3)c2o1 [Compound 3354],0.01 to 10
10,COC(=O)[C@H](CNC(=O)C(=O)Nc1ccc(Cn2cccn2)cc1)NC(=O)c1ccc(Nc2nc(NC3(c4ccc(Cl)cc4)CC3)nc(OCC(F)(F)F)n2)cc1 [Compound 3195],0.01 to 10
11,CNC(=O)CCc1cccc(NC(=O)C(=O)NCC(C)(C)CNC(=O)c2ccc(Nc3nc(NC4(c5ccc(Cl)cc5)CC4)nc(OCC(F)(F)F)n3)cc2)c1 [Compound 3037],0.01 to 10
12,COc1cc(OC)nc(-c2ccc(NC(=O)C(=O)NC[C@H](NC(=O)c3ccc(Nc4nc(NC5(c6ccc(Cl)cc6)CC5)nc(OCC(F)(F)F)n4)cc3)C(=O)O)cc2)n1 [Compound 3270],0.01 to 10
13,Cc1noc2ccc(NC(=O)C(=O)NCC(C)(C)CNC(=O)c3ccc(Nc4nc(NC5(c6ccc(Cl)cc6)CC5)nc(OCC(F)(F)F)n4)cc3)cc12 [Compound 3339],0.01 to 10
14,COC(=O)[C@H](CNC(=O)C(=O)Nc1ccc(-c2ccc(C#N)cc2)cc1)NC(=O)c1ccc(Nc2nc(NC3(c4ccc(Cl)cc4)CC3)nc(OCC(F)(F)F)n2)cc1 [Compound 3103],0.01 to 10
15,CN(CCCN(C)C(=O)c1ccc(Nc2nc(NC3(c4ccc(Cl)cc4)CC3)nc(OCC(F)(F)F)n2)cc1)C(=O)C(=O)NCc1ccc(F)cc1 [Compound 3413],10 to 1000
16,CCc1ccc(NC(=O)C(=O)NC[C@H](NC(=O)c2ccc(Nc3nc(NC4(c5ccc(Cl)cc5)CC4)nc(OCC(F)(F)F)n3)cc2)C(=O)O)cc1 [Compound 3296],0.01 to 10
17,Cc1ccc(NC(=O)C(=O)N(C)CCCNC(=O)c2ccc(Nc3nc(NC4(c5ccc(Cl)cc5)CC4)nc(OCC(F)(F)F)n3)cc2)cc1 [Compound 3445],0.01 to 10

# Source: patent US8916702B2 (priority 2012, dated 2014)
